Results on three molecules are retold here after patent US20250361485A1, “MODIFIED CD4+ T CELLS EXPRESSING IL-37 AND METHODS OF USE THEREOF” (The Regents of the University of Colorado, A Body Corporate, priority 2022, published 2025).

The test system of one series is caspase-1. Put plainly: FAM-FLICA caspase-1 activation assay in human Treg cells. In kind it is cell-based. On the procedure: Purified primary human CD4+ T cells were used for siRNA knockdown of RUNX1, RPTOR, IL37, CREB1, CHK1, NLRP2, NLRP3, NLRP4, ASC, and NLRC4, and CD4+CD25+CD127^dim T cells for siRNA knockdown of FOXP3 and IL37. Cells were purified from healthy donor PBMCs as described above and then placed in culture in complete RPMI 1640 for at least 2 h prior to siRNA transfection via nucleofection using the Amaxa P3 Primary Cell 4D-Nucleofector X Kit L (Lonza) following the manufacturer's instructions. […] Knockdowns were confirmed 24 hours after nucleofection by qRT-PCR or 48 hours later by western blot, and the relative density of the protein bands was determined using FIJI. […]
Purified lymphocytes from either humans or mice were washed with FACS buffer (5% BSA (Sigma-Aldrich) and 1×PBS), and then prepared for surface or intracellular staining, as described (Osborne and Wetzel, 2012). For surface staining, 1 μg or the manufacturer-recommended amounts of fluorescently conjugated antibody specific to the surface marker to be visualized was added to 1×10^6 cells resuspended in 100 μl of FACS buffer for 30 min at 4° C., then washed 2× with FACS buffer prior to being either analyzed or further processed. […] For measuring proliferation, cells were stained with 5-μM CFSE (Molecular Probes, Eugene, OR) prior to cell culture and analyzed using flow cytometry. […]

The next series relates to PAK1/2/3. Kind of series: PAK1/2/3 inhibition in unstimulated human Treg cells. Type of series: cell-based. Conditions: 1 μM. On the procedure: Purified lymphocytes from either humans or mice were washed with FACS buffer (5% BSA (Sigma-Aldrich) and 1×PBS), and then prepared for surface or intracellular staining, as described (Osborne and Wetzel, 2012). For surface staining, 1 μg or the manufacturer-recommended amounts of fluorescently conjugated antibody specific to the surface marker to be visualized was added to 1×10^6 cells resuspended in 100 μl of FACS buffer for 30 min at 4° C., then washed 2× with FACS buffer prior to being either analyzed or further processed. For intracellular cytokine staining (ICS), the FOXP3 Cytoperm/Cytofix staining kit (BD Pharmingen, San Diego, CA) was used after cells were stimulated for 24 h on 1 μg/ml anti-CD3-coated plates with soluble 1 μg/ml anti-CD28 antibody or anti-CD3/CD28 conjugated Dynabeads™ (Gibco, Thermo Fisher). For measuring proliferation, cells were stained with 5-μM CFSE (Molecular Probes, Eugene, OR) prior to cell culture and analyzed using flow cytometry. Flow-based measurement of caspase-1 activation was done using the FAM-FLICA® Caspase-1 Assay kit #98 following the manufacturer's instructions (ImmunoChemistry Tech, Bloomington, MN). For flow cytometry experiments using the caspase-1 inhibitor Ac-YVAD-CMK, cells were cultured with 50 μM Ac-YVAD-CMK for 2 h prior to stimulation, 24 h (mouse), and 48 h (human), with anti-CD3/CD28 conjugated Dynabeads™ and then prepared for flow cytometry analyses. For experiments using the PAK1/2/3 inhibitor FRAX597, cells were cultured with 1 μM FRAX597 for either 24 h (flow and qRT-PCR) or 48 h (immunoblotting) and then prepared for analysis. For flow cytometry or qRT-PCR experiments using IL-6 treatment, human and mouse cells were cultured with 20 ng/ml IL-6 (Peprotech) and anti-CD3/CD28 conjugated Dynabeads™ and then prepared for analyses. […] All acquisitions were performed on a Galios® or Galios® 561 cytometer equipped with Kaluza software (Beckman-Coulter, Indianapolis, IN), and all data were analyzed with FlowJo_V10 software (Tree Star, Ashland, OR).

The target in series [1] is p-SMAD3 S208 (SMAD3 phosphorylated at Ser208), human, endogenous in human Treg cells (human) (UniProt P84022). Kind of series: flow cytometry read-out in human Treg cells with or without 50 uM Ac-YVAD-CMK (FIG. 15D), presumably flow-based PLA.
Chain of UniProt P84022 (P84022 2-425 limits assumed): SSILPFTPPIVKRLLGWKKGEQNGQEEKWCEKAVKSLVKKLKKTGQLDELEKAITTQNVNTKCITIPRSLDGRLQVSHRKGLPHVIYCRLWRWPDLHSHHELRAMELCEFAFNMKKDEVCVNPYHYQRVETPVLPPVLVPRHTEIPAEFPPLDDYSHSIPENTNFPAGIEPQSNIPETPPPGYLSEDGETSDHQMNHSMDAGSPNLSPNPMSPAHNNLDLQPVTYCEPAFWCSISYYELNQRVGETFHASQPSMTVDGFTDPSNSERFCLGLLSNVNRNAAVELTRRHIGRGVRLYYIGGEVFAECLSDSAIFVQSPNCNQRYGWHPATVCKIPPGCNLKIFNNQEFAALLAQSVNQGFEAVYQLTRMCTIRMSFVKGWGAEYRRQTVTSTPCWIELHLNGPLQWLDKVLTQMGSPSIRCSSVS

On to `CCn1c(=O)c(-c2ccc(-c3cncs3)cc2Cl)cc2cnc(Nc3ccc(N4CCN(C)CC4)cc3)nc21` [FRAX 597], for which the “reduction in caspase-1 activation” value in the series on caspase-1 (human Treg cells, 1 μM, 24 hrs) stood at 44%. Besides, in the series on PAK1/2/3 (24 hrs), the IL-37 localization entry is on record as “shift in IL-37 localization from the nucleus to the cytoplasm” and the “p-NLRC4 (S533), fold decrease” value was 1.9 fold. Moreover, the “FOXP3 gene and protein expression” value with PAK1/2/3 (24 hrs (gene), 48 hrs (protein)) is reported as “decrease”.
Take “ASC: siRNA against ASC, SEQ ID NO: 1-2 (chain 1 GCUCUUCAGUUUCACACCAUU; chain 2 UGGUGUGAAACUGAAGAGCUU; chemistry not given here)”: the “caspase-1 activation compared to siRNA scramble control” value with caspase-1 (primary human Treg cells, siRNA silencing) is listed as −20.5%.
For the molecule “Interleukin-37 (IL-37), human, endogenous in human Treg cells (from UniProt Q9NZH6 1-218) (ligand)”, the decrease of the interaction after caspase-1 inhibitor Ac-YVAD-CMK, against untreated Treg cells in series [1] came out at 36.5%.
